Assay results reported in publication PMC4326127, “Collagen Inhibitory Peptide R1R2 Mediates Vascular Remodeling by Decreasing Inflammation and Smooth Muscle Cell Activation” (PLoS ONE, 2015).

Assays:
[1] = test system: binding of FN to collagen type I; test: Solid-phase binding assay (competitive ELISA) of FN to collagen; design: species or system human FN; rat collagen type I; details: 4 nM FN incubated with peptide at 4°C overnight, then on wells coated with 10 μg/ml collagen I overnight at 37°C; anti-FN/HRP, ABTS, A405
Experimental: Human FN and rat collagen type I for competitive ELISA were purchased from Sigma-Aldrich (St. Louis, MO).
The FN-peptide solutions were added to collagen or BSA-coated wells, and the plates were incubated overnight at 37°C. The wells were washed and a rabbit anti-FN antibody was added for 90 minutes at room temperature. Wells were washed and then incubated with a horseradish peroxidase-conjugated secondary antibody. After washing was completed, peroxidase activity was quantified using 2,2'-azino-bis-(3-ethylbenthiazoline-6-sulfonic acid). Measurements were done at 405 nm (A405) using a SpectraMax M5 microplate reader (Molecular Device, Sunnyvale, CA).
Bound FN was detected with an anti-FN antibody followed by HRP-conjugated secondary antibody, and ABTS as described in Methods. The absorbance at 405nm was quantitated.

[2] = test system: left common carotid artery (flow-induced vascular remodeling); test: Morphometric analysis of carotid artery after complete common carotid ligation; assay type: in vivo, FVB/NJ (FVB) mice; details: periadventitial
From the text: (§1) Animals were anesthetized with isoflurane inhalation. The left common carotid artery was exposed, dissected free from the surrounding connective tissue and completely ligated with 6-0 silk suture just proximal to the carotid bifurcation. […] 4–10 mice were included in each experimental group.
5 groups of animals were processed for morphometric analysis. Mice were fixed with 10% formalin 7 or 14 days after the surgery. The common carotid arteries were harvested and embedded in paraffin.
(§2) For in vivo experiments, the data are shown as the mean ± SEM. For in vitro experiments, the data shown are the means ± SD of a representative experiment, at least 3 independent experiments were performed. One-way ANOVA with post-hoc testing were used for data analysis with GraphPad Prism software (GraphPad, San Diego, CA). If normality test failed, nonparametric Kruskal-Wallis test followed by Dunn's post-hoc test were used. P > 0.05 was not considered significant.

collagen type I = test: IHC for collagen type I in ligated carotid artery; assay type: in vivo, FVB/NJ (FVB) mice; details: 7 days after surgery; 20 μM peptide in pluronic gel; mean ± SEM; R1R2 n = 6, scrambled n = 6
Experimental: as §1
(§3) Paraffin sections selected from the first mm of the carotid artery in each group were used for immunohistochemistry (IHC). […] Sections were then incubated with appropriate biotinylated secondary antibodies followed by avidin-biotin immunoperoxidase system (Vector Laboratories, Burlingame, CA). Liquid DAB Substrate Chromogen system (Dako, Carpinteria, CA) was used for detection.
(§4) Quantitative IHC analysis was performed on digital images captured with a 20x objective by using Image-Pro Plus software. Data from 3–6 mice for each group were averaged, and the average values ± SEM were shown. For FN, collagen type I, SM-MHC and SM α-actin, color digital images were transformed into gray scale, and the sum of the optical densities from the intima+media area in each section was determined. […] The percent of positive cells is reported as the proliferation index. […] The intima+media region was traced manually. The percent of positively stained area in intima+media to the total traced area was assessed.
(§5) For in vivo experiments, the data are shown as the mean ± SEM. […]

collagen = test: Hydroxyproline assay of carotid collagen content; assay type: in vivo, FVB/NJ (FVB) mice; details: 14 days post-ligation; three carotid arteries pooled per group; colorimetric chloramine T; mean ± SEM, n = 3
Experimental: as §1
After reconstituting with water, samples were measured using a colorimetric chloramine T assay. Three independent experiments were performed for statistical analysis.
as §2

FN = test: IHC for FN in ligated carotid artery; assay type: in vivo, FVB/NJ (FVB) mice; details: mean ± SEM
Experimental: as §1, §3, §4, §2

[3] = test system: smooth muscle α-actin (SMAA); test: IHC for smooth muscle α-actin in ligated carotid artery; assay type: in vivo, FVB/NJ (FVB) mice; details: 7 days post-ligation; mean ± SEM; scrambled n = 6, R1R2 n = 5 (sham 0.232 ± 0.011, n = 5)
Experimental: as §1, §3, §4, §5

CD45 (+) leukocytes = test: CD45 IHC, leukocyte infiltration in carotid intima-media; assay type: in vivo, FVB/NJ (FVB) mice; details: 7 days after ligation; percent of positively stained area; mean ± SEM; R1R2 n = 5, scrambled n = 6
Experimental: as §1, §3, §4, §2

VCAM-1 = VCAM-1 IHC in ligated carotid artery; assay type: in vivo, FVB/NJ (FVB) mice; details: 7 days after ligation; percent of positively stained area; mean ± SEM; R1R2 n = 7, control peptide n = 9
Experimental: as §1, §3, §4, §5

ICAM-1 = ICAM-1 IHC in ligated carotid artery; assay type: in vivo, FVB/NJ (FVB) mice; details: 7 days after ligation; percent of positively stained area; mean ± SEM; R1R2 n = 7, control peptide n = 8
Experimental: as §1, §3, §4, §5

A7r5 SMCs [4] = test: A7r5 SMC growth study; assay type: cell-based; details: 48hr; 10% FBS after serum starvation and 36 hours peptide treatment; hemocytometer, trypan blue; mean ± SD, n = 5
Experimental: (§6) Human umbilical vein endothelial cells (HUVECs) and A7r5 SMCs were provided by Resource Center (SB3, NSC 100-2325-B-080-001), National Research Program for Biopharmaceuticals (Hsinchu, Taiwan). HUVECs were maintained in M199 (Life Technologies, Carlsbad, CA) with 25U/ml heparin (Sigma-Aldrich, St. Louis, MO), 10% fetal bovine serum (FBS) and endothelial cell growth supplement (ECGS; Millipore, Billerica, MA). A7r5 SMCs were grown in Dulbecco’s Modified Eagle’s Medium (DMEM) containing high glucose, supplemented with 10% fetal bovine serum. Human U937 cells were grown in RPMI1640 with 10% FBS.
A7r5 cells and HUVECs were growth-arrested and then stimulated with 10% FBS or 10 ng/ml TNF-αovernight after serum starvation as indicated in the figure legend. Briefly, trypan blue-excluding cells were counted with a hemocytometer, and data were analyzed using GraphPad Prism Software (San Diego, CA) as in previous studies. A second observer performed a similar analysis to verify the initial findings.
as §2
Fig 6 R1R2 reduces SMC proliferation and migration. (A) A7r5 SMC growth study over 96 hours. After serum starvation and treatment with R1R2 or scrambled peptides for 36 hours, cells were stimulated with 10% FBS over 96 hours. Cells were counted at the indicated time in the figure (n = 5). (B) A7r5 SMCs were pretreated with R1R2 or scramble peptide for 36 hours. […] (C) Quantitation of SMC migration in the scratch wound healing assay was performed by subtracting the cell-free area 30 hours after PDGF-BB stimulation from the cell-free area in the beginning (n = 5). * indicates p<0.05 and ** p< 0.01.

A7r5 SMCs [5] = test: SMC migration, scrape wound assay; assay type: cell-based; details: A7r5 SMCs, 36 hours peptide pretreatment, 10 ng/ml PDGF-BB, 30 hours; mean ± SD, n = 3
Experimental: as §6
A scrape wound assay was used to assess the effect of R1R2 and scrambled peptides on SMC migration as described. Briefly, A7r5 SMCs were grown until 90% confluent, followed by serum starvation and treatment with R1R2 and scrambled peptides for 36 hours. Several scrape wounds were then performed across the dish with a sterile yellow pipet tip. We initiated the experiment with treatment of cells with 10 ng/ml PDGF-BB. Photographs of the wound area were taken immediately after PDGF-BB addition (0 hour) and 30 hours postwounding with an Olympus CKX-41 microscope connected to a camera. At least three photographs were taken per group at each time point. Wound areas were determined using Image-Pro Software (Media Cybernetics, MD). Measurement of migration was determined by subtracting the cell-free area 30 hours after PDGF-BB addition from the cell-free area in the beginning of scrape wounds.
For in vivo experiments, the data are shown as the mean ± SEM. For in vitro experiments, the data shown are the means ± SD of a representative experiment, at least 3 independent experiments were performed. […]
Fig 6 R1R2 reduces SMC proliferation and migration. […] Cells were counted at the indicated time in the figure (n = 5). […] (C) Quantitation of SMC migration in the scratch wound healing assay was performed by subtracting the cell-free area 30 hours after PDGF-BB stimulation from the cell-free area in the beginning (n = 5). * indicates p<0.05 and ** p< 0.01.

U937 cells / HUVECs [6] = test: Monocyte U937 adhesion to HUVECs; assay type: cell-based, human; details: HUVECs treated with 10 ng/ml TNF-α; calcein-AM U937 5x10^5 cells/well, 30 minutes at 37°C; fluorescence 485/535; mean ± SD
Experimental: as §2

U937 cells / HUVECs [7] = test: Monocyte U937 transendothelial migration assay; assay type: cell-based, human; details: HUVECs on 5um transwells, 10 ng/ml TNF-α; U937 1.5x10^5 cells/transwell, 1.5 hours at 37°C; fluorescence 485/535; mean ± SD
Experimental: as §2

[8] = 7 day after ligation, 20 μM peptide in 50 μl F-127 pluronic gel, mean ± SEM, scrambled n = 4, R1R2 n = 10
[9] = 14 day after ligation, 20 μM peptide in 50 μl F-127 pluronic gel, mean ± SEM, scrambled n = 4, R1R2 n = 9

Sequence: PGPGAEQPEQSKERNSQERGNGLALPGEELEGQEGGNKPSGENNGPPQGNLRGPLEG [scrambled peptide, reference compound]
- effect on FN-collagen type I binding [1]: had no effect on FN-collagen binding
- effect on neointimal formation ([2]; 7 and 14 days post-ligation, 20 μM peptide in pluronic gel, in words): have no effect on neointimal formation
- EEL Area [2, 8]: 91403 ± 3805 (n = 4) μm^2
- Lumen [2, 8]: 44901 ± 4552 (n = 4) μm^2
- EEL Area [2, 9]: 92240 ± 13572 (n = 4) μm^2
- Intima+Media [2, 9]: 65441 ± 11973 (n = 4) μm^2
- Lumen [2, 9]: 37551 ± 11976 (n = 4) μm^2
- collagen type I IHC intensity in intima-media area (collagen type I): 0.198 ± 0.007
- collagen content, hydroxyproline assay (collagen): 2.133 ± 0.284
- FN IHC intensity in intima-media area (FN; 7 days after ligation, R1R2 n = 6, scrambled n = 6): 0.144 ± 0.005
- FN IHC intensity in intima-media area (FN; 14 days after ligation, R1R2 n = 7, scrambled n = 7): 0.338 ± 0.016
- SMAA IHC staining in intima-media area [3]: 0.176 ± 0.004
- CD45 (+) area in intima-media (CD45 (+) leukocytes): 0.441 ± 0.049%
- VCAM-1 (+) area in intima-media (VCAM-1): 25.72 ± 1.966%
- ICAM-1 (+) area in intima-media (ICAM-1): 30.39 ± 3.016%
- A7r5 SMC growth, cell number (A7r5 SMCs [4]): 2.740 ± 0.688 x 10^5
- SMC migration (cell-free area at 0 h minus cell-free area at 30 hours) (A7r5 SMCs [5]): 313537 ± 66925
- U937 adhesion to HUVECs (U937 cells / HUVECs [6]): 259093 ± 14720 cells per cm^2
- U937 transendothelial migration (U937 cells / HUVECs [7]): 110055 ± 42517 cells per well
